Assay results: patent US20190209454A9, “DETERMINATION OF MELANIN INHIBITION POTENTIAL OF NATURAL INGREDIENTS” (Kemin Industries, Inc., priority 2016, published 2019)

Key:
mushroom tyrosinase = experiment: Tyrosinase inhibition assay; format: biochemical; conditions: for tyrosinase enzyme inhibition versus kojic acid: even at high concentrations (5%)
Procedure: Rosamox (0.1%, 0.05% and 0.01%), Lysofix dry (0.1%, 0.05% & 0.01%) and Chinese lantern oil (0.1%, 0.05%, 0.01% & 0.005%) were tested for inhibition of tyrosinase enzyme activity. Kojic acid (2%, 1% & 0.5%), β-arbutin (5%, 2%, 1% & 0.5%) and hydroquinone (5%, 2%, 1% & 0.5%) served as positive controls in this study. Rosamox and Chinese lantern oil samples were prepared in Dimethylsulfoxide (DMSO). Lysofix sample, positive controls, 3,4-dihydroxyphenyl-alanine (L-DOPA) and mushroom tyrosinase were prepared using 0.1 M phosphate buffer (pH-6.6).
Tyrosinase inhibition potential of natural ingredients was measured using a modified method published previously by Uchida et al^12. Briefly, the test samples or positive control (20 μL) were added to the reaction mixture containing 0.12 mL of 0.1 M potassium phosphate buffer (pH 6.6) in 96 well microplates and incubated at room temperature for 2 minutes. After 2 minutes of incubation, 40 μL of 10 mM L-DOPA solution was added to the reaction mixture and incubated for 5 minutes at 37° C. using a benchtop incubator (Fisher scientific, PA). Twenty microliters of mushroom tyrosinase (200 units/mL) was added to the above reaction mixture and incubated at 37° C. in a conventional lab incubator (Fisher Scientific, PA) for 10 minutes. The amount of dopachrome produced in the reaction mixture was measured spectrophotometrically using Spectramax Me5 plate reader at 475 nm. The tyrosinase activity and the % inhibition of tyrosinase in presence of test material were calculated as follows:
Tyrosinase activity=(S(Abs)−B(Abs))/C(Abs)×100
Inhibition (%)=1−{(S(Abs)−B(Abs))}/C(Abs)×100 Equation 1. • Formula for Measuring tyrosinase activity and % tyrosinase inhibition, where S(Abs)—sample absorbance; B(Abs)—Blank absorbance (Without enzyme) and C(Abs)—Control Absorbance [Buffer and DMSO].

[1] = tested on: melanocyte-keratinocyte co-culture (HEK001 keratinocytes and primary epidermal melanocytes); experiment: Melanin inhibition in melanocyte-keratinocyte co-culture; format: cell-based, human
Procedure: Cell culture studies were performed using Human Epidermal Keratinocytes (HEK) continuous cell lines [HEK001 (ATCC® CRL-2404™) lot #61331463] and Primary epidermal melanocytes (ATCC PCS-200-013, lot #60948598). HEK cells were grown in the HEK growth media consisting of keratinocytes serum free medium (GIBCO-BRL 17005042, lot #1638561) with 5 ng/mL human recombinant epidermal growth factor (EGF) (ATCC, lot #1584416) and 2 mM L-glutamine (ATCC, lot #62195752) (without bovine pituitary extract and serum). HEK growth media was supplemented with penicillin (10000 units) and streptomycin (10 mg/mL) solution (Gibco, lot #1469707). Primary epidermal melanocytes growth media consisting of Dermal cell basal medium (ATCC PCS-200-030) with Melanocytes Growth kit [ATCC PCS-200-042] (rh Insulin 5 μg/mL, Ascorbic acid 50 μg/mL, L-glutamine 6 mM, Epinephrine calcium chloride 1.5 μM peptide growth factor and M8 supplement) and supplemented with penicillin (10 units/mL)-streptomycin (10 μg/mL)-Amphotericin B solution (25 ng/mL). […]
HEK cells were harvested by treatment with trypsin/EDTA solution and resuspended in HEK media. Viable cells were determined by trypan blue exclusion study and counted using a hemocytometer. […]

MelanoDerm tissue = experiment: Microscopic observation of MelanoDerm tissue; format: cell-based, human; conditions: end of 21 days
Procedure: For visualization of treatment effect on tissue culture, microscopic observation of MelanoDerm tissue on day 1, 4, 10, 14 and finally on day 21 was carried out using glass bottom microwell dish with the help of benchtop inverted microscope (Nikon Inc., NY) at 20× magnification. Images were captured using Tucsen camera (Xintu Photonics Co., China) attached to the microscope.

[2] = tested on: murine melanoma cell model; conditions: cited from earlier work

OC[C@H]1O[C@@H](Oc2ccc(O)cc2)[C@H](O)[C@@H](O)[C@@H]1O [β-arbutin]
tyrosinase enzyme inhibition versus kojic acid (mushroom tyrosinase): not as effective as kojic acid

Oc1ccc(O)cc1 [Hydroquinone, hydroquinone]
tyrosinase enzyme inhibition versus kojic acid (mushroom tyrosinase): not as effective as kojic acid

O=c1cc(CO)occ1O [kojic acid, Kojic acid]
tyrosinase enzyme inhibition compared to control (mushroom tyrosinase; all concentrations (0.5%, 1% and 2%)): effective in inhibiting tyrosinase enzyme
melanin production compared to control ([1]; 2% (highest tested concentration), p<0.005): maximum effect
melanin production compared to control ([1]; tested concentrations (2%, 1%, 0.5%), 5 days treatment): significant reduction in melanin production
melanin granules in microscopic images (MelanoDerm tissue; 0.5%): presence of some melanin granules
melanin granules in microscopic images (MelanoDerm tissue; 1% and 2%): no sign of melanin granules

CCCCC/C=C\C/C=C\CCCCCCCC(=O)O [Linoleic acid]
reduction of melanogenesis and amount of tyrosinase protein [2]: effective in reduction of melanogenesis
